# Source: patent US20240041814A1, “USE OF REAGENT FOR DETECTING RETINOL METABOLITE IN PREPARATION OF TOOL FOR DIAGNOSING AND/OR TREATING PNEUMOCONIOSIS” (Institute of Basic Medical Sciences of Chinese Academy of …, priority 2022, published 2024)
# Experiments:
# mice with pneumoconiosis [1] = assay: Cardiopulmonary function test (RVSP, lung function IC and Cst); assay type: in vivo, mouse; conditions: ATRA-treated mice with pneumoconiosis compared with control mice, 10 mg/kg intragastrically 3 times a week for 4 weeks
# Description: Male C57BL/6J mice (aged 8-10 weeks and weighing 25-30 g) were selected and housed in an SPF grade laboratory animal room, and the model of pneumoconiosis was constructed by one-time intratracheal instillation of silica (Si); the mice were divided into four groups (n=9): (1) PBS+vehicle group: 40 μL of sterile phosphate-buffered saline (PBS) was administered by intratracheal instillation; two weeks later, corn oil was administered intragastrically 3 times a week, for 4 weeks; (2) PBS+ATRA group: 40 μL of sterile PBS was administered by intratracheal instillation; two weeks later, 10 mg/kg ATRA was administered intragastrically 3 times a week, for 4 weeks; (3) Si+vehicle group: a silica suspension (300 mg/mL, 40 μL) was administered by intratracheal instillation; two weeks later, corn oil was administered intragastrically 3 times a week, for 4 weeks; (4) Si+ATRA group: a silica suspension (300 mg/mL, 40 μL) was administered by intratracheal instillation; two weeks later, 10 mg/kg ATRA was administered intragastrically 3 times a week, for 4 weeks. All mice were sacrificed after 6 weeks, and the corresponding samples were collected for detection. An anesthetized mouse was fixed on an experimental bench, and an 8 gauge needle connected with a high-fidelity pressure sensor was inserted into the right ventricle to directly measure the invasive right ventricular systolic pressure (RVSP). The RVSP was recorded and analyzed by a Power Lab data acquisition and analysis system (PL 3504, AD Instruments, Australia). Mouse lung function was detected by a pulmonary function testing system (DSI Buxco, USA). Before experiment, the mouse was anesthetized by intraperitoneal injection of 0.4 mL/100 g 2% pentobarbital, tracheotomy was performed, a trachea cannula was inserted, and a ventilator was connected. […] A statistical analysis was conducted on indexes closely related to lung function changes of pneumoconiosis, including inspiratory capacity (IC) and quasi-static compliance (Cst).
# FN-1 and Col-I = assay: Western blot and qPCR of fibrosis factors in mouse lung tissue; assay type: in vivo; conditions: mice with pneumoconiosis, 10 mg/kg ATRA intragastrically 3 times a week for 4 weeks
# Description: Male C57BL/6J mice (aged 8-10 weeks and weighing 25-30 g) were selected and housed in an SPF grade laboratory animal room, and the model of pneumoconiosis was constructed by one-time intratracheal instillation of silica (Si); the mice were divided into four groups (n=9): (1) PBS+vehicle group: 40 μL of sterile phosphate-buffered saline (PBS) was administered by intratracheal instillation; two weeks later, corn oil was administered intragastrically 3 times a week, for 4 weeks; (2) PBS+ATRA group: 40 μL of sterile PBS was administered by intratracheal instillation; two weeks later, 10 mg/kg ATRA was administered intragastrically 3 times a week, for 4 weeks; (3) Si+vehicle group: a silica suspension (300 mg/mL, 40 μL) was administered by intratracheal instillation; two weeks later, corn oil was administered intragastrically 3 times a week, for 4 weeks; (4) Si+ATRA group: a silica suspension (300 mg/mL, 40 μL) was administered by intratracheal instillation; two weeks later, 10 mg/kg ATRA was administered intragastrically 3 times a week, for 4 weeks. All mice were sacrificed after 6 weeks, and the corresponding samples were collected for detection. Lung tissue proteins of all mice were extracted. […]
# IL-1β and IL-6 = assay: ELISA of inflammatory factors in mouse BALF; assay type: in vivo; conditions: mice with pneumoconiosis, 10 mg/kg ATRA intragastrically 3 times a week for 4 weeks
# Description: Male C57BL/6J mice (aged 8-10 weeks and weighing 25-30 g) were selected and housed in an SPF grade laboratory animal room, and the model of pneumoconiosis was constructed by one-time intratracheal instillation of silica (Si); the mice were divided into four groups (n=9): (1) PBS+vehicle group: 40 μL of sterile phosphate-buffered saline (PBS) was administered by intratracheal instillation; two weeks later, corn oil was administered intragastrically 3 times a week, for 4 weeks; (2) PBS+ATRA group: 40 μL of sterile PBS was administered by intratracheal instillation; two weeks later, 10 mg/kg ATRA was administered intragastrically 3 times a week, for 4 weeks; (3) Si+vehicle group: a silica suspension (300 mg/mL, 40 μL) was administered by intratracheal instillation; two weeks later, corn oil was administered intragastrically 3 times a week, for 4 weeks; (4) Si+ATRA group: a silica suspension (300 mg/mL, 40 μL) was administered by intratracheal instillation; two weeks later, 10 mg/kg ATRA was administered intragastrically 3 times a week, for 4 weeks. All mice were sacrificed after 6 weeks, and the corresponding samples were collected for detection.
# Concentrations of inflammatory factors IL-1β and IL-6 in mouse BALF were detected by using ELISA kits.
# mice with pneumoconiosis [2] = assay: Mouse model of pneumoconiosis (intratracheal silica) with ATRA treatment, overall outcome; assay type: in vivo; conditions: 10 mg/kg ATRA intragastrically 3 times a week for 4 weeks
# mice with pneumoconiosis [3] = assay: Pathological staining of lung (HE, Szapiel score; Masson, Aschroft score); assay type: in vivo, mouse; conditions: 10 mg/kg ATRA intragastrically 3 times a week for 4 weeks
# Description: Male C57BL/6J mice (aged 8-10 weeks and weighing 25-30 g) were selected and housed in an SPF grade laboratory animal room, and the model of pneumoconiosis was constructed by one-time intratracheal instillation of silica (Si); the mice were divided into four groups (n=9): (1) PBS+vehicle group: 40 μL of sterile phosphate-buffered saline (PBS) was administered by intratracheal instillation; two weeks later, corn oil was administered intragastrically 3 times a week, for 4 weeks; (2) PBS+ATRA group: 40 μL of sterile PBS was administered by intratracheal instillation; two weeks later, 10 mg/kg ATRA was administered intragastrically 3 times a week, for 4 weeks; (3) Si+vehicle group: a silica suspension (300 mg/mL, 40 μL) was administered by intratracheal instillation; two weeks later, corn oil was administered intragastrically 3 times a week, for 4 weeks; (4) Si+ATRA group: a silica suspension (300 mg/mL, 40 μL) was administered by intratracheal instillation; two weeks later, 10 mg/kg ATRA was administered intragastrically 3 times a week, for 4 weeks. All mice were sacrificed after 6 weeks, and the corresponding samples were collected for detection. […] For HE staining, inflammation was scored based on Szapiel scores; for Masson staining, the severity of fibrosis was scored by Aschroft scores. The sections were scanned, photographed and counted by a 3D HISTECH digital slide scanner.
compound,measurement,setting,value
"CC1=C(/C=C/C(C)=C/C=C/C(C)=C/C(=O)O)C(C)(C)CCC1 [ATRA, All-trans retinoic acid]",inspiratory capacity (IC),mice with pneumoconiosis [1],improved to a certain extent
same,quasi-static compliance (Cst),mice with pneumoconiosis [1],improved to a certain extent
same,right ventricular systolic pressure (RVSP),mice with pneumoconiosis [1],lowered to a certain extent
same,level of fibrosis factor Col-I in lung tissue (transcriptional),FN-1 and Col-I,reduced levels
same,level of fibrosis factor FN-1 in lung tissue (translational and transcriptional),FN-1 and Col-I,reduced levels
same,concentration of IL-1β in BALF,IL-1β and IL-6,lowered concentrations
same,concentration of IL-6 in BALF,IL-1β and IL-6,lowered concentrations
same,"cardiopulmonary function, inflammation, and fibrosis",mice with pneumoconiosis [2],significantly improve
same,severity of fibrosis (Masson staining),mice with pneumoconiosis [3],reduce the severity
same,severity of inflammation (HE staining),mice with pneumoconiosis [3],reduce the severity
